Here are results for five molecules from ChEMBL document CHEMBL1130731, “Methyloxime-substituted aminopyrrolidine: a new surrogate for 7-basic group of quinolone” (Bioorg Med Chem Lett, 1998).

The structures appear in SMILES notation. Converted amounts (≈) assume the structure as drawn. A value given as a limit tells only on which side of the number the result lay.

Data set [1] relates to Acinetobacter calcoaceticus. The data set can be described thus: In vitro antimicrobial activity against Acinetobacter calcoaceticus 15473. Type of data set: functional.
For another data set, the system named is Bacillus subtilis. The data set can be described thus: In vitro antimicrobial activity against Bacillus subtilis ATCC 6633. Type of data set: functional.
The next data set deals with Citrobacter koseri. The experiment in a line: In vitro antimicrobial activity against Citrobacter diversus 2046E. The class given is functional.
Data set [2] concerns Escherichia coli. The experiment in a line: In vitro antimicrobial activity against Escherichia coli 10536. The class given is functional.
Data set [3] has as its system Escherichia coli. The experiment in a line: In vitro antimicrobial activity against Escherichia coli 3190Y. The class given is functional.
The subject of data set [4] is Escherichia coli. The experiment in a line: In vitro antimicrobial activity against Escherichia coli 851E. Type of data set: functional.
For data set [5], the system named is Escherichia coli. The data set can be described thus: In vitro antimicrobial activity against Escherichia coli TEM5 3739E. Type of data set: functional.
For the next data set, the system named is Enterobacter cloacae. The data set can be described thus: In vitro antimicrobial activity against Enterobacter cloacae p99. Type of data set: functional.
Another data set relates to Klebsiella aerogenes. The experiment in a line: In vitro antimicrobial activity against Klebsiella aerogenes 1076E. Type of data set: functional.
The test system of a further data set is Micrococcus luteus. The data set can be described thus: In vitro antimicrobial activity against Micrococcus luteus ATCC 9341. Type of data set: functional.
Another data set concerns Pseudomonas aeruginosa. The experiment in a line: In vitro antimicrobial activity against Pseudomonas aeruginosa 1012E. Type of data set: functional.
A further data set concerns Salmonella typhimurium. The experiment in a line: In vitro antimicrobial activity against Salmonella Typhimurium 14028. Particulars: Salmonella enterica. Type of data set: functional, Salmonella enterica subsp. enterica serovar Typhimurium.
The subject of data set [6] is Staphylococcus epidermidis. The experiment in a line: In vitro antimicrobial activity against Staphylococcus epidermis 178. The class given is functional.
The subject of data set [7] is Staphylococcus epidermidis. The experiment in a line: In vitro antimicrobial activity against Staphylococcus epidermis 887E. The class given is functional.
Data set [8] deals with Staphylococcus aureus. The experiment in a line: In vitro antimicrobial activity against Staphylococcus aureus 241. Type of data set: functional.
Data set [9] has as its system Staphylococcus aureus. The data set can be described thus: In vitro antimicrobial activity against Staphylococcus aureus 77. Type of data set: functional.
The subject of data set [10] is Staphylococcus aureus. The data set can be described thus: In vitro antimicrobial activity against Staphylococcus aureus giorgio. Type of data set: functional.
Data set [11] is described as follows: Tmax value after administration of 20 mg/Kg oral dose in rat. Type of data set: ADME, organism-based. As to conditions: in vivo.
Data set [12] in a line: Half-life after administration of 4 mg/Kg oral dose in dog. As to conditions: in vivo.
Data set [13] in a line: Bioavailability in dog (dose 4 mg/kg p.o.). As to conditions: in vivo, po. The class given is ADME, organism-based, Canis lupus familiaris.
Data set [14] is described as follows: Half-life after administration of 20 mg/Kg oral dose in rat. Type of data set: ADME, organism-based. As to conditions: in vivo.
Data set [15] can be described thus: Bioavailability in rat (dose 20 mg/kg p.o.). Type of data set: ADME, organism-based. Particulars: in vivo, po.
Data set [16] is described as follows: Cmax value after administration of 20 mg/Kg oral dose in rat. As to conditions: in vivo. The class given is ADME, organism-based. Details: dose 20 mg/Kg, route oral.
A short description of data set [17]: AUC value after administration of 20 mg/Kg oral dose in rat. Type of data set: ADME, organism-based. As to conditions: plasma.
Data set [18] concerns Mus musculus. The experiment in a line: In vivo efficacy against systemic infection of Pseudomonas aeruginosa 1912E in mouse. The class given is functional.
Data set [19] has as its system Mus musculus. The experiment in a line: In vivo efficacy against systemic infection of Staphylococcus aureus giorgio in mouse. Type of data set: functional.
A short description of data set [20]: Tmax value after administration of 4 mg/Kg oral dose in dog. Type of data set: ADME, organism-based, Canis lupus familiaris. Particulars: in vivo.
Data set [21] can be described thus: in vivo. Particulars: dog, po, 4 mg/kg.
Data set [22] is described as follows: in vivo. As to conditions: dog, plasma, po, 4 mg/kg.

Broadly, the MIC is the smallest concentration in the dilution series that meets the test's criterion for growth inhibition. The Tmax is the time at which the peak concentration occurs. Broadly, the half-life is the time needed for the level to fall by half in the phase considered. Lower therefore signals fast loss. As a reminder, the bioavailability is the share of a dose that reaches the circulation, judged against a reference dose that is usually intravenous. A high value points to much systemic uptake. As a reminder, the Cmax is the highest concentration seen after dosing. A word on the AUC: it is concentration integrated over time. Low readings indicate less exposure, high ones more exposure. As a reminder, the ED50 is the midpoint of the dose-response relation. Read a low ED50 as an effect at a small dose.

As for `CO/N=C1\CN(c2c(F)c(N)c3c(=O)c(C(=O)O)cn(C4CC4)c3c2F)CC1N` (configuration not stated), the MIC is 0.031 µg/mL (≈ 0.0761 µM) in [1]; not above 0.008 µg/mL against Bacillus subtilis; 0.063 µg/mL (≈ 0.155 µM) in the data set on Citrobacter koseri; not above 0.008 µg/mL in the data set on Escherichia coli [2]; not above 0.008 µg/mL in the data set on Escherichia coli [3]; 0.031 µg/mL (≈ 0.0761 µM) in the data set with Escherichia coli [4]. In addition, the MIC in the data set with Escherichia coli [5] is 0.13 µg/mL (≈ 0.319 µM); against Enterobacter cloacae, not above 0.008 µg/mL; against Klebsiella aerogenes, 0.25 µg/mL (≈ 0.614 µM); with Micrococcus luteus, 0.5 µg/mL (≈ 1.23 µM); against Pseudomonas aeruginosa, 1 µg/mL (≈ 2.45 µM); against Salmonella typhimurium, 0.063 µg/mL (≈ 0.155 µM). Moreover, the MIC in [6] is 2 µg/mL (≈ 4.91 µM); in [7] it was 0.016 µg/mL (≈ 0.0393 µM); against Staphylococcus aureus [8] it was 2 µg/mL (≈ 4.91 µM); against Staphylococcus aureus [9], 0.031 µg/mL (≈ 0.0761 µM); against Staphylococcus aureus [10], not above 0.008 µg/mL.
Regarding `NC1CN(c2c(F)cc3c(=O)c(C(=O)O)cn(C4CC4)c3c2F)C/C1=N\OCCF` (configuration not stated), the MIC in data set [1] is 0.13 µg/mL (≈ 0.306 µM); against Bacillus subtilis, 0.016 µg/mL (≈ 0.0377 µM); against Citrobacter koseri, 0.13 µg/mL (≈ 0.306 µM); in the data set on Escherichia coli [2] it was 0.031 µg/mL (≈ 0.073 µM); against Escherichia coli [3] it was 0.016 µg/mL (≈ 0.0377 µM); in the data set with Escherichia coli [4], 0.031 µg/mL (≈ 0.073 µM). The MIC against Escherichia coli [5] worked out at 0.25 µg/mL (≈ 0.589 µM); against Enterobacter cloacae, 0.016 µg/mL (≈ 0.0377 µM); against Klebsiella aerogenes, 0.25 µg/mL (≈ 0.589 µM); in the data set with Micrococcus luteus, 0.25 µg/mL (≈ 0.589 µM); in the data set with Pseudomonas aeruginosa, 2 µg/mL (≈ 4.71 µM); in the data set on Salmonella typhimurium, 0.13 µg/mL (≈ 0.306 µM). The MIC in data set [6] is 2 µg/mL (≈ 4.71 µM); in data set [7] it was 0.063 µg/mL (≈ 0.148 µM); with Staphylococcus aureus [8], 2 µg/mL (≈ 4.71 µM); against Staphylococcus aureus [9], 0.063 µg/mL (≈ 0.148 µM); against Staphylococcus aureus [10], 0.031 µg/mL (≈ 0.073 µM).
Turning to `CNC1CN(c2nc3c(cc2F)c(=O)c(C(=O)O)cn3C2CC2)C/C1=N\OC` (configuration not stated), the MIC in data set [1] is 0.13 µg/mL (≈ 0.334 µM); in the data set on Bacillus subtilis it was not above 0.008 µg/mL; against Citrobacter koseri, 0.13 µg/mL (≈ 0.334 µM); in the data set with Escherichia coli [2], not above 0.008 µg/mL; against Escherichia coli [3] it was not above 0.008 µg/mL; with Escherichia coli [4], 0.063 µg/mL (≈ 0.162 µM). Besides, the MIC against Escherichia coli [5] was 1 µg/mL (≈ 2.57 µM); with Enterobacter cloacae it was not above 0.008 µg/mL; in the data set on Klebsiella aerogenes, 0.5 µg/mL (≈ 1.28 µM); in the data set with Micrococcus luteus, 2 µg/mL (≈ 5.14 µM); with Pseudomonas aeruginosa, 4 µg/mL (≈ 10.3 µM); with Salmonella typhimurium, 0.25 µg/mL (≈ 0.642 µM). The MIC amounted to 32 µg/mL (≈ 82.2 µM) in data set [6]; 0.063 µg/mL (≈ 0.162 µM) in data set [7]; 16 µg/mL (≈ 41.1 µM) in the data set on Staphylococcus aureus [8]; 0.063 µg/mL (≈ 0.162 µM) against Staphylococcus aureus [9]; 0.031 µg/mL (≈ 0.0796 µM) with Staphylococcus aureus [10].
With `CO/N=C1/CN(c2cc3c(cc2F)c(=O)c(C(=O)O)cn3C2CC2)CC1N` (configuration not stated), the MIC in data set [1] is 0.031 µg/mL (≈ 0.0828 µM); in the data set on Bacillus subtilis it was not above 0.008 µg/mL; against Citrobacter koseri, 0.031 µg/mL (≈ 0.0828 µM); against Escherichia coli [2] it was 0.016 µg/mL (≈ 0.0427 µM); in the data set with Escherichia coli [3] it was not above 0.008 µg/mL; against Escherichia coli [4], 0.031 µg/mL (≈ 0.0828 µM). Further, the MIC against Escherichia coli [5] was 0.5 µg/mL (≈ 1.34 µM); in the data set on Enterobacter cloacae, not above 0.008 µg/mL; against Klebsiella aerogenes, 0.25 µg/mL (≈ 0.668 µM); against Micrococcus luteus, 0.25 µg/mL (≈ 0.668 µM); with Pseudomonas aeruginosa, 1 µg/mL (≈ 2.67 µM); in the data set with Salmonella typhimurium, 0.13 µg/mL (≈ 0.347 µM). The MIC was 16 µg/mL (≈ 42.7 µM) in data set [6]; 0.031 µg/mL (≈ 0.0828 µM) in data set [7]; 32 µg/mL (≈ 85.5 µM) with Staphylococcus aureus [8]; 0.031 µg/mL (≈ 0.0828 µM) in the data set with Staphylococcus aureus [9]; 0.016 µg/mL (≈ 0.0427 µM) against Staphylococcus aureus [10].
With `CO/N=C1\CN(c2c(F)cc3c(=O)c(C(=O)O)cn(C4CC4)c3c2F)CC1N` (configuration not stated), the Tmax in data set [11] stood at 0.18 h; in [20], 0.23 h. Moreover, the figures for the half-life in data set [12] and in [14] were 2.34 h and 5.18 h, respectively. In addition, the bioavailability in data set [13] and in data set [15] was more than 100% in each case. Also, the Cmax in data set [16] worked out at 22800 ng/mL; in the data set “in vivo [21]” it was 3440 ng/mL. Besides, the AUC in data set [17] was 179000 ng·h/mL; in “in vivo [22]” it was 12900 ng·h/mL. The MIC in data set [1] is 0.016 µg/mL (≈ 0.0408 µM); against Bacillus subtilis, not above 0.008 µg/mL; in the data set with Citrobacter koseri, 0.063 µg/mL (≈ 0.161 µM); with Escherichia coli [2] it was not above 0.008 µg/mL; against Escherichia coli [3], not above 0.008 µg/mL; in the data set with Escherichia coli [4], 0.031 µg/mL (≈ 0.079 µM). For the same molecule, the minimal inhibitory concentration (MIC) with Escherichia coli [5] is 0.25 µg/mL (≈ 0.637 µM); against Enterobacter cloacae, not above 0.008 µg/mL; with Klebsiella aerogenes, 0.13 µg/mL (≈ 0.331 µM); against Micrococcus luteus, 0.13 µg/mL (≈ 0.331 µM); in the data set with Pseudomonas aeruginosa, 1 µg/mL (≈ 2.55 µM); with Salmonella typhimurium it was 0.063 µg/mL (≈ 0.161 µM). Also, the MIC in [6] is 2 µg/mL (≈ 5.1 µM); in [7], 0.016 µg/mL (≈ 0.0408 µM); in the data set with Staphylococcus aureus [8] it was 2 µg/mL (≈ 5.1 µM); against Staphylococcus aureus [9] it was 0.016 µg/mL (≈ 0.0408 µM); in the data set on Staphylococcus aureus [10], not above 0.008 µg/mL. Moreover, the ED50 in the data set with Mus musculus [18] worked out at 9.69 mg/kg; in the data set with Mus musculus [19], 0.87 mg/kg.
